US10471046B2, “Method for treating, preventing, or reducing the risk of skin infection” (Melinta Subsidiary Corp., priority 2014, dated 2019)
≈ marks a conversion by molar mass, not a printed value. Counter-ions that a name gives are not always drawn. Like-named read-outs stand apart in the source and are kept apart here.

Key:
[1] = type: physicochemical; conditions: radezolid salt forms in HPLC grade water, ambient temperature
B. fragilis = experiment: Broth microdilution MIC; type: cell-based; conditions: Bacteroides fragilis, ATCC25285; B. fragilis ATCC 25285
B. thetaiotaomicron = experiment: microbe, parasite or virus in culture; type: cell-based
F. magna = experiment: Broth microdilution MIC; type: cell-based; conditions: Finegoldia magna, ATCC15794; F. magna ATCC 15794
P. granulosum = experiment: Broth microdilution MIC; type: cell-based; conditions: P. granulosum ATCC 25746
G. vaginalis = experiment: Broth microdilution MIC; type: cell-based; conditions: Gardnerella vaginalis
S. aureus = experiment: Broth microdilution MIC; type: cell-based
[2] = Dynamic vapor sorption/desorption (DVS); type: physicochemical; conditions: radezolid salts
Protocol: Dynamic vapor sorption/desorption (DVS) data were collected on a VTI SGA-100 Vapor Sorption Analyzer. Sorption and desorption data were collected over a range of 5% to 95% relative humidity (RH) at 10% RH intervals under a nitrogen purge. Samples were not dried prior to analysis. Equilibrium criteria used for analysis were less than 0.0100% weight change in 5 minutes, with a maximum equilibration time of 3 hours if the weight criterion was not met. Data were not corrected for the initial moisture content of the samples. Sodium chloride and polyvinylpyrrolidine (PVP) were used as calibration standards.

[3] = Solubility of salts in water by HPLC; type: physicochemical; conditions: for Solubility at Native pH / Solubility at Adjusted pH: radezolid salts in water by HPLC at 23° C.; for Solubility at Adjusted pH: pH adjusted to ~3.5; for Native pH: supernatant of saturated salt solution in water
Protocol: In another set of experiments, solubility of various radezolid salts was determined by HPLC. Approximately 1 mL of saturated solution (with excess of solid in solution) of each salt was prepared in water. The mixture was further mixed overnight on a slurry wheel then centrifuged on a desktop centrifuge at maximum speed for ˜5 min. The supernatant was collected, and pH was measured. Solubility was determined at the native pH. Then the pH was adjusted to ˜3.5 with sodium hydroxide solution or an acid solution in which salt was generated. The supernatant was filtered through a 0.2 μm nylon syringe filter and diluted into 0.1% formic acid solution immediately after filtration for HPLC. All HPLC analyses were performed using an Agilent 1100 series liquid chromatograph equipped with a diode array detector, degasser, quaternary pump, and an autosampler. […] The column temperature was set to 30° C., and the detector wavelength was 270 nm with a bandwidth of 8 nm and a reference wavelength of 360 nm. The mobile phase A was 0.1% formic acid in water (HPLC grade), mobile phase B was 0.1% formic acid in methanol (HPLC grade). […] The injection volume was 5 μl.

[4] = Approximate solubility in solvents by aliquot addition; type: physicochemical; conditions: organic solvent or mixture, thermodynamic from solid
Protocol: Solubilities of the radezolid free base and radezolid HCl salt in various solvents were estimated and are shown in Tables 10 and 11, respectively, below. A weighed sample was treated with aliquots of test solvent at ambient temperature. Complete dissolution of the test material was determined by visual inspection. Solubility was estimated based on the total solvent used to provide complete dissolution. The actual solubility may be greater than the approximate solubility calculated because of the use of solvent aliquots that were too large or due to a slow rate of dissolution. […] If complete dissolution was achieved as a result of only one aliquot addition, the solubility is expressed as “greater than.” The approximate solubilities were rounded to the nearest whole number.

CC(=O)NC[C@H]1CN(c2ccc(-c3ccc(CNCc4cnn[nH]4)cc3)c(F)c2)C(=O)O1 [Acetate]
solubility [1]: <0.02 mg/mL

CC(=O)NC[C@H]1CN(c2ccc(-c3ccc(CNCc4cnn[nH]4)cc3)c(F)c2)C(=O)O1 [Benzoate]
solubility [1]: <0.03 mg/mL

CC(=O)NC[C@H]1CN(c2ccc(-c3ccc(CNCc4cnn[nH]4)cc3)c(F)c2)C(=O)O1 [Citrate]
solubility [1]: 2.6 mg/mL

C[C@H]1c2cccc(O)c2C(=O)C2=C(O)[C@]3(O)C(=O)C(C(N)=O)=C(O)[C@@H](N(C)C)[C@@H]3[C@@H](O)[C@@H]21 [DOX, doxycycline]
MIC (B. fragilis): ≤ 0.06 µg/mL | MIC difference relative to radezolid MIC (B. thetaiotaomicron; B. thetaiotaomicron, doxycycline: more potent than radezolid): 4 fold | MIC (B. thetaiotaomicron; Bacteroides thetaiotaomicron, ATCC29741, read-out: MIC, broth microdilution): 2 µg/mL (≈ 4.5 µM) | MIC (F. magna): 0.125 µg/mL (≈ 0.281 µM) | MIC (P. granulosum): 0.25 µg/mL (≈ 0.563 µM) | MIC (G. vaginalis; ATCC14018, G. vaginalis ATCC 14018): 0.5 µg/mL (≈ 1.13 µM) | MIC (G. vaginalis; ATCC49145, G. vaginalis ATCC 49145): 32 µg/mL (≈ 72 µM) | MIC difference relative to radezolid MIC (S. aureus; S. aureus, doxycycline and clindamycin: MICs lower than radezolid): 4 fold | MIC (S. aureus; Staphylococcus aureus, ATCC29213, S. aureus ATCC 29213): 0.5 µg/mL (≈ 1.13 µM)

CC(=O)NC[C@H]1CN(c2ccc(-c3ccc(CNCc4cnn[nH]4)cc3)c(F)c2)C(=O)O1 [Esylate, Radezolid Esylate Salt]
DVS desorption: weight loss from 95 to 5% RH [2]: Desorption: 2.999% weight loss | DVS sorption: weight gain from 5 to 95% RH [2]: 2.930% weight gain from 5 to | DVS sorption: weight loss upon equilibration at 5% RH [2]: Sorption: 0.22% weight loss | Solubility at Native pH [3]: 53.8 mg/mL | Solubility at Adjusted pH [3]: 61.7 mg/mL | Native pH [3]: 4.0

CC(=O)NC[C@H]1CN(c2ccc(-c3ccc(CNCc4cnn[nH]4)cc3)c(F)c2)C(=O)O1 [Ethane-1,2-disulfonate, Radezolid Ethanedisulfonate Salt]
DVS desorption: weight loss from 95 to 5% RH [2]: Desorption: 2.388% weight loss | DVS sorption: weight gain from 5 to 95% RH [2]: 2.355% weight gain from 5 to | DVS sorption: weight loss upon equilibration at 5% RH [2]: Sorption: 0.017% weight loss | Solubility at Native pH [3]: >133.2 mg/mL | Solubility at Adjusted pH [3]: >116.9 mg/mL | Native pH [3]: 2.0

CC(=O)NC[C@H]1CN(c2ccc(-c3ccc(CNCc4cnn[nH]4)cc3)c(F)c2)C(=O)O1 [Fumarate]
solubility [1]: 2.6 mg/mL

CC(=O)NC[C@H]1CN(c2ccc(-c3ccc(CNCc4cnn[nH]4)cc3)c(F)c2)C(=O)O1 [Hydrochloride, (5S)—N-[3-(2-Fluoro-4′-{[(1H-[1,2,3]triazol-4-ylmethyl)-amino]-methyl}-biphenyl-4-yl)-2-oxo-oxazolidin-5-ylmethyl]-acetamide chloride]
DVS desorption: weight loss from 95 to 5% RH [2]: Desorption: 0.069% weight loss | DVS sorption: weight gain from 5 to 95% RH [2]: 0.064% weight gain from 5 to | DVS sorption: weight gain upon equilibration at 5% RH [2]: Sorption: 0.03% weight gain | solubility [1]: <0.03 mg/mL | solubility ([4]; 1-butanol, Table 11: 1-Butanol, material never went into solution): < 2000 µg/mL | solubility ([4]; 2,2,2-trifluoroethanol (TFE), Table 11: 2,2,2-trifluoroethanol (TFE)): ≥ 6000 µg/mL | solubility ([4]; 2-butanone, Table 11: 2-Butanone, material never went into solution): < 2000 µg/mL | solubility ([4]; 2-propanol, Table 11: 2-Propanol, material never went into solution): < 2000 µg/mL | solubility ([4]; HFIPA/THF, Table 11: HFIPA/THF): ≥ 74000 µg/mL | solubility ([4]; HFIPA/dioxane (9:1), Table 11: HFIPA/Dioxane (9:1)): ≥ 52000 µg/mL | solubility ([4]; HFIPA/ethanol (5:1), Table 11: HFIPA/Ethanol (5:1)): ≥ 80000 µg/mL | solubility ([4]; dioxane, Table 11: Dioxane, material never went into solution): < 2000 µg/mL | solubility ([4]; ethanol, Table 11: Ethanol, material never went into solution): < 2000 µg/mL | solubility ([4]; hexafluoroisopropanol (HFIPA), Table 11: Hexafluoroisopropanol (HFIPA)): ≥ 225000 µg/mL | solubility ([4]; methanol, Table 11: Methanol, material never went into solution): < 2000 µg/mL | solubility ([4]; propionitrile, Table 11: Propionitrile, material never went into solution): < 2000 µg/mL | solubility ([4]; tert-butanol, Table 11: Tert-butanol, material never went into solution): < 5000 µg/mL | solubility ([4]; tetrahydrofuran (THF), Table 11: Tetrahydrofuran (THF), material never went into solution): < 2000 µg/mL | Solubility at Adjusted pH ([3]; listed as HCl Salt): 2.0 mg/mL | Native pH ([3]; listed as HCl Salt): 4.6

CC(=O)NC[C@H]1CN(c2ccc(-c3ccc(CNCc4cnn[nH]4)cc3)c(F)c2)C(=O)O1 [Lactate]
solubility [1]: <0.02 mg/mL

CC(=O)NC[C@H]1CN(c2ccc(-c3ccc(CNCc4cnn[nH]4)cc3)c(F)c2)C(=O)O1 [Maleate]
solubility [1]: 2.3 mg/mL

CC(=O)NC[C@H]1CN(c2ccc(-c3ccc(CNCc4cnn[nH]4)cc3)c(F)c2)C(=O)O1 [Mesylate, Radezolid Mesylate Salt]
DVS desorption: weight loss from 95 to 5% RH ([2]; Mesylate Salt): Desorption: 0.835% weight loss | DVS sorption: weight gain from 5 to 95% RH ([2]; Mesylate Salt): 1.025% weight gain from 5 to | DVS sorption: weight loss upon equilibration at 5% RH ([2]; Mesylate Salt): Sorption: 0.114% weight loss | Solubility at Adjusted pH ([3]; Mesylate Salt): 18.0 mg/mL | Solubility at Native pH ([3]; Mesylate Salt): 18.6 mg/mL | Native pH ([3]; Mesylate Salt): 4.1

CC(=O)NC[C@H]1CN(c2ccc(-c3ccc(CNCc4cnn[nH]4)cc3)c(F)c2)C(=O)O1 [Phosphate]
solubility [1]: 1.1 mg/mL

CC(=O)NC[C@H]1CN(c2ccc(-c3ccc(CNCc4cnn[nH]4)cc3)c(F)c2)C(=O)O1 [Salicylate]
solubility [1]: <0.03 mg/mL

CC(=O)NC[C@H]1CN(c2ccc(-c3ccc(CNCc4cnn[nH]4)cc3)c(F)c2)C(=O)O1 [Succinate]
solubility [1]: <0.03 mg/mL

CC(=O)NC[C@H]1CN(c2ccc(-c3ccc(CNCc4cnn[nH]4)cc3)c(F)c2)C(=O)O1 [Sulfate, Radezolid Sulfate Salt]
DVS desorption: weight loss from 95 to 5% RH ([2]; Sulfate Salt): Desorption: 11.504% weight loss | DVS sorption: weight gain from 5 to 95% RH ([2]; Sulfate Salt): 11.527% weight gain from 5 to | DVS sorption: weight loss upon equilibration at 5% RH ([2]; Sulfate Salt): Sorption: 0.654% weight loss | Solubility at Adjusted pH ([3]; Sulfate Salt): 3.3 mg/mL | Solubility at Native pH ([3]; Sulfate Salt): 4.0 mg/mL | Native pH ([3]; Sulfate Salt): 1.9

CC(=O)NC[C@H]1CN(c2ccc(-c3ccc(CNCc4cnn[nH]4)cc3)c(F)c2)C(=O)O1 [Tartrate]
solubility [1]: 1.8 mg/mL

CC(=O)NC[C@H]1CN(c2ccc(-c3ccc(CNCc4cnn[nH]4)cc3)c(F)c2)C(=O)O1 [Tosylate, Radezolid Tosylate Salt]
DVS desorption: weight loss from 95 to 5% RH ([2]; Tosylate Salt): Desorption: 0.435% weight loss | DVS sorption: weight gain from 5 to 95% RH ([2]; Tosylate Salt): 0.435% weight gain from 5 to | DVS sorption: weight loss upon equilibration at 5% RH ([2]; Tosylate Salt): Sorption: 0.070% weight loss | Solubility at Adjusted pH ([3]; Tosylate Salt): 0.4 mg/mL | Solubility at Native pH ([3]; Tosylate Salt): 0.9 mg/mL | Native pH ([3]; Tosylate Salt): 5.1
